Assay results published in PubChem BioAssay (NCI).
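Step 1: Grow cells in 96-well plates. Step 2: Expose to compound for 48 hours at 5 concentrations. Step 3: Interpolate endpoints linearly; if unreached, use highest concentration. TGI is the concentration that stops growth completely.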

Legend:
Assay in all cases: growth of human tumour cells (NCI), 48 h
[1] = test system: SW-620 colon
[2] = test system: DMS 114 small cell lung
[3] = test system: RXF-631 renal
[4] = test system: EKVX NSCLC
[5] = test system: A549 NSCLC
[6] = test system: LOX IMVI melanoma
[7] = test system: SNB-75 CNS
[8] = test system: SNB-78 CNS
[9] = test system: SF-539 CNS
[10] = test system: UACC-257 melanoma
[11] = test system: NCI-H460 lung
[12] = test system: SR leukemia
[13] = test system: ACHN renal
[14] = test system: HOP-18 NSCLC
[15] = test system: MOLT-4 leukemia
[16] = test system: IGROV1 ovarian
[17] = test system: SK-MEL-28 melanoma
[18] = test system: UACC-62 melanoma
[19] = test system: OVCAR-4 ovarian
[20] = test system: HCT-116 colon
[21] = test system: CAKI-1 renal
[22] = test system: K-562 leukemia
[23] = test system: 786-0 renal
[24] = test system: TK-10 renal
[25] = test system: XF 498 CNS
[26] = test system: HOP-62 NSCLC
[27] = test system: HCT-15 colon
[28] = test system: LXFL 529 NSCLC
[29] = test system: MALME-3M melanoma
[30] = test system: M14 melanoma
[31] = test system: NCI-H23 lung
[32] = test system: NCI-H226 lung
[33] = test system: SNB-19 CNS
[34] = test system: SF-295 CNS
[35] = test system: OVCAR-5 ovarian
[36] = test system: HCC-2998 colon
[37] = test system: KM12 colon
[38] = test system: M19-MEL melanoma
[39] = test system: COLO 205 colon
[40] = test system: DMS 273 small cell lung
[41] = test system: SN12C renal
[42] = test system: SF-268 CNS
[43] = test system: UO-31 renal
[44] = test system: KM20L2 colon
[45] = test system: DLD-1 colon
[46] = test system: SK-MEL-5 melanoma
[47] = test system: U251 CNS
[48] = test system: NCI-H522 lung
[49] = test system: RXF 393 renal
[50] = test system: HT29 colon
[51] = test system: OVCAR-8 ovarian
[52] = test system: SK-MEL-2 melanoma
[53] = test system: OVCAR-3 ovarian
[54] = test system: CCRF-CEM leukemia
[55] = test system: HOP-92 NSCLC
[56] = test system: HL-60(TB) leukemia
[57] = test system: A498 renal
[58] = test system: SK-OV-3 ovarian
[59] = test system: RPMI-8226 leukemia

Work on `CC(=O)Oc1c(Br)ccc2cc(C(Br)Br)c(C(=O)c3ccccc3)nc12` yielded a TGI [1] of 48.2 µM, a TGI [2] of 49.6 µM and a TGI [3] of 47.6 µM. The TGI [4] was 39.4 µM, the TGI [5] was 43.4 µM and the TGI [6] was 50.9 µM. For the same molecule, the TGI [7] was 46 µM, the TGI [8] was 71.4 µM and the TGI [9] was 42.3 µM. The TGI [10] was 8.87 µM, the TGI [11] was 44.4 µM and the TGI [12] was 74.2 µM. The TGI [13] was 44.3 µM, the TGI [14] was 31.2 µM and the TGI [15] was 46.2 µM. The TGI [16] was 76.5 µM, the TGI [17] was 36.1 µM and the TGI [18] was 39.4 µM. The TGI [19] was 21.7 µM, the TGI [20] was 42.9 µM and the TGI [21] was 12.9 µM. The TGI [22] was 44.1 µM, the TGI [23] was 46.9 µM and the TGI [24] was 31.9 µM. It also gave a TGI [25] of 36.1 µM, a TGI [26] of 34.4 µM and a TGI [27] of 44.2 µM. For the same molecule, the TGI [28] was 52.3 µM, the TGI [29] was 51 µM and the TGI [30] was 40.8 µM. It also gave a TGI [31] of 37.5 µM, a TGI [32] of 40.2 µM and a TGI [33] of 39.1 µM. For the same molecule, the TGI [34] was 35.1 µM, the TGI [35] was 31.1 µM and the TGI [36] was 32.6 µM. For the same molecule, the TGI [37] was 37.1 µM, the TGI [38] was 44.1 µM and the TGI [39] was 52.7 µM. For the same molecule, the TGI [40] was 42.3 µM, the TGI [41] was 45.6 µM and the TGI [42] was 53.5 µM. For the same molecule, the TGI [43] was 35.9 µM, the TGI [44] was 42.2 µM and the TGI [45] was 51.5 µM. It also gave a TGI [46] of 38.7 µM, a TGI [47] of 36.3 µM and a TGI [48] of 14.8 µM. It also gave a TGI [49] of 33.8 µM, a TGI [50] of 40.1 µM and a TGI [51] of 53 µM. For the same molecule, the TGI [52] was 48.2 µM.

`C=C1c2[nH]c3ccccc3c2CC(C(=O)O)N1C(O)c1ccc(S(=O)(=O)O)cc1` (stereo unspecified) was tested, and the TGI [1] was > 100 µM, the TGI [2] was > 100 µM and the TGI [3] was > 100 µM. For the same molecule, the TGI [5] was > 100 µM, the TGI [6] was > 100 µM and the TGI [7] was > 100 µM. For the same molecule, the TGI [8] was > 100 µM, the TGI [9] was > 100 µM and the TGI [10] was > 100 µM. For the same molecule, the TGI [11] was > 100 µM, the TGI [12] was > 100 µM and the TGI [53] was > 100 µM. The TGI [13] was > 100 µM, the TGI [15] was > 100 µM and the TGI [17] was > 100 µM. For the same molecule, the TGI [18] was > 100 µM, the TGI [19] was > 100 µM and the TGI [54] was > 100 µM. The TGI [20] was > 100 µM, the TGI [55] was > 100 µM and the TGI [21] was > 100 µM. For the same molecule, the TGI [56] was > 100 µM, the TGI [22] was > 100 µM and the TGI [23] was > 100 µM. The TGI [24] was > 100 µM, the TGI [25] was > 100 µM and the TGI [26] was > 100 µM. The TGI [28] was > 100 µM, the TGI [29] was > 100 µM and the TGI [30] was > 100 µM. The TGI [31] was > 100 µM, the TGI [32] was > 100 µM and the TGI [33] was > 100 µM. For the same molecule, the TGI [34] was > 100 µM, the TGI [35] was > 100 µM and the TGI [36] was > 100 µM. The TGI [57] was > 100 µM, the TGI [37] was > 100 µM and the TGI [38] was > 100 µM. For the same molecule, the TGI [40] was > 100 µM, the TGI [41] was > 100 µM and the TGI [42] was > 100 µM. The TGI [43] was > 100 µM, the TGI [45] was > 100 µM and the TGI [46] was > 100 µM. The TGI [47] was > 100 µM, the TGI [48] was > 100 µM and the TGI [58] was > 100 µM. The TGI [49] was > 100 µM, the TGI [50] was > 100 µM and the TGI [51] was > 100 µM. The TGI [59] was > 100 µM and the TGI [52] was > 100 µM.

In the case of `O=C(Cc1ccccc1)N/N=C(/c1nc2ccc([N+](=O)[O-])cc2[nH]c1=O)C(O)c1ccc(C(O)/C(=N/NC(=O)Cc2ccccc2)c2nc3ccc([N+](=O)[O-])cc3[nH]c2=O)cc1` (stereo unspecified), the TGI [1] is reported as > 100 µM, the TGI [2] is reported as > 100 µM and the TGI [3] is reported as > 100 µM. For the same molecule, the TGI [4] was > 100 µM, the TGI [5] was > 100 µM and the TGI [6] was > 100 µM. The TGI [7] was > 100 µM, the TGI [9] was > 100 µM and the TGI [10] was > 100 µM. The TGI [53] was > 100 µM, the TGI [13] was > 100 µM and the TGI [16] was > 100 µM. For the same molecule, the TGI [17] was > 100 µM, the TGI [18] was > 100 µM and the TGI [19] was > 100 µM. For the same molecule, the TGI [54] was > 100 µM, the TGI [20] was > 100 µM and the TGI [55] was > 100 µM. For the same molecule, the TGI [21] was > 100 µM, the TGI [56] was > 100 µM and the TGI [22] was > 100 µM. The TGI [23] was > 100 µM, the TGI [24] was > 100 µM and the TGI [25] was > 100 µM. The TGI [26] was > 100 µM, the TGI [27] was > 100 µM and the TGI [28] was > 100 µM. For the same molecule, the TGI [29] was > 100 µM, the TGI [30] was > 100 µM and the TGI [31] was > 100 µM. For the same molecule, the TGI [32] was > 100 µM, the TGI [33] was > 100 µM and the TGI [34] was > 100 µM. The TGI [35] was > 100 µM, the TGI [36] was > 100 µM and the TGI [57] was > 100 µM. The TGI [38] was > 100 µM, the TGI [39] was > 100 µM and the TGI [41] was > 100 µM. For the same molecule, the TGI [42] was > 100 µM, the TGI [44] was > 100 µM and the TGI [45] was > 100 µM. The TGI [48] was 94.6 µM, the TGI [58] was > 100 µM and the TGI [49] was > 100 µM. The TGI [50] was > 100 µM, the TGI [51] was > 100 µM and the TGI [59] was > 100 µM. For the same molecule, the TGI [52] was > 100 µM.

`CCOC(=O)/C(=C/c1ccccc1Br)P(=O)(OCC)OCC` was tested, and the TGI [1] was 4.45 µM, the TGI [3] was 8.45 µM and the TGI [4] was 8.16 µM. The TGI [5] was 10.7 µM, the TGI [6] was 3.09 µM and the TGI [7] was 6.02 µM. The TGI [9] was 6.22 µM, the TGI [11] was 10.7 µM and the TGI [53] was 5.46 µM. It also gave a TGI [13] of 6 µM, a TGI [14] of 10.7 µM and a TGI [15] of 5.35 µM. The TGI [16] was 10.1 µM, the TGI [17] was 4.66 µM and the TGI [18] was 3.29 µM. For the same molecule, the TGI [19] was 4.2 µM, the TGI [54] was 3.16 µM and the TGI [20] was 10.1 µM. The TGI [55] was 3.45 µM, the TGI [21] was 4.3 µM and the TGI [56] was 1.94 µM. The TGI [22] was 2 µM, the TGI [23] was 2.66 µM and the TGI [24] was 7.98 µM. The TGI [25] was 3.56 µM, the TGI [26] was 12 µM and the TGI [27] was 5.87 µM. For the same molecule, the TGI [28] was 2.92 µM, the TGI [29] was 3.47 µM and the TGI [30] was 2.95 µM. The TGI [31] was 4.09 µM, the TGI [32] was 6.89 µM and the TGI [33] was 6.21 µM. The TGI [34] was 12.2 µM, the TGI [35] was 5.92 µM and the TGI [36] was 3.24 µM. The TGI [57] was 8.61 µM, the TGI [37] was 4.52 µM and the TGI [38] was 3.68 µM. For the same molecule, the TGI [40] was 3.04 µM, the TGI [41] was 5.76 µM and the TGI [42] was 10.5 µM. For the same molecule, the TGI [44] was 5.67 µM, the TGI [45] was 4.85 µM and the TGI [46] was 3.51 µM. It also gave a TGI [47] of 3.18 µM, a TGI [48] of 2.32 µM and a TGI [49] of 2.44 µM. It also gave a TGI [50] of 13.9 µM, a TGI [51] of 8.09 µM and a TGI [59] of 3.36 µM. The TGI [52] was 3.7 µM.
